Test results published in PubChem BioAssay AID1996.
Converted amounts (≈) assume the structure as drawn.

Conditions: buffer; pH 7.4; 200.0 µM

SMILES | solubility kinetic [µg/mL]
COC(=O)Nc1nc2ccc(Sc3ccccc3)cc2[nH]1 | 0.9 (≈ 3.01 µM)
COc1ccccc1NC(=O)c1ccccc1NC(=O)c1ccccc1C(=O)O | > 58.6
CC(=O)Nc1ccc(N=c2cc([N+](=O)[O-])cc(Cl)n2O)cc1 | 29 (≈ 89.9 µM)
Cc1csc(NC(=O)Cc2c(F)cccc2Cl)n1 | 36.4 (≈ 128 µM)
Cc1ccc(S(=O)(=O)CCC(=O)NCCc2ccccc2)cc1 | > 49.7
Cc1ccc(C(=O)C(C)OC(=O)c2nc(Cl)ccc2Cl)cc1 (stereo not given) | > 50.7
CC(C)n1cc(/C(N)=N/O)c(=O)n(Cc2ccccc2)c1=O | > 45.3
O=C(NCc1ccc(F)cc1)c1cccs1 | 29.9 (≈ 127 µM)
CCOc1ccccc1NC(=O)COC(=O)C1CCC1 | 39.2 (≈ 141 µM)
CC(C)c1ccc(NC(=O)NCc2ccc3c(c2)OCO3)cc1 | < 0.3
COc1cc2ccccc2cc1C(=O)N1CCN(c2ccccn2)CC1 | > 52.1
Cc1sc2ncnc(SCC(=O)N3CCCC(C(F)(F)F)C3)c2c1C (stereo not given) | 2.7 (≈ 6.93 µM)
CC(=O)Oc1ccc(-c2nc3ccccc3c(=O)o2)cc1 | 2.6 (≈ 9.24 µM)
COC(=O)Cn1cc(C=C2C(=O)NC(=O)NC2=O)c2ccccc21 | 8.6 (≈ 26.3 µM)
N/C(=N\c1nc2ccccc2o1)NC(=O)c1ccc([N+](=O)[O-])cc1 | < 0.1
COc1cc(OC)cc(C(=O)NCCc2ccc(OC)c(OC)c2)c1 | 45.5 (≈ 132 µM)
O=C(Cc1cc2ccccc2o1)NCc1ccc(F)cc1 | 5 (≈ 17.6 µM)
CC1CN(C(=S)Nc2ccc(Br)cc2)CC(C)O1 (stereo not given) | 48.5 (≈ 147 µM)
O=C(O)C1CCN(C(=O)c2csc(-c3ccc4c(c3)CCO4)n2)CC1 | > 53.8
C=CCNC(=O)N1CCCC(C(=O)c2cccc(OC(C)C)c2)C1 (stereo not given) | > 49.6
CCOC(=O)Cn1nc(C)cc1NC(=O)c1ccncc1 | > 43.2
Cn1cccc1C(=O)OCC(=O)NCCCc1ccccc1 | > 45.1

SMILES | solubility kinetic [µg/mL]
COC(=O)c1ccc(CNC(=O)COC(=O)c2cc(Cl)ccc2O)cc1 | 7.1 (≈ 18.8 µM)
CC1CN(CCC(=O)Nc2ccccc2F)CC(C)O1 (stereo not given) | > 42.1
COc1ccc(CN(C)C(C)C(=O)Nc2ccc(S(=O)(=O)N3CCCCC3)cc2)c(OC)c1 (stereo not given) | 6.1 (≈ 12.8 µM)
O=C(COc1ccc(Cl)cc1Cl)NC(=O)c1ccccc1 | < 0.7
Cc1nc(N)[nH]c(=O)c1CC(=O)OCCCl | 30.4 (≈ 124 µM)
CCOc1ccccc1-n1c(C)cc(C=O)c1C | > 36.5
O=C(NCC1CCCO1)c1ccc(NC(=O)c2cc(F)c(F)cc2Cl)cc1 (stereo not given) | 5.3 (≈ 13.4 µM)
Cc1cccc(OCC(=O)OCC(=O)Nc2sccc2C(N)=O)c1 | 44.2 (≈ 127 µM)
O=C(O)Cc1ccc(NC(=O)Nc2cccc3ccccc23)cc1 | 45.1 (≈ 141 µM)
COc1ccccc1C(=O)Nc1cccc(C(=O)c2ccccc2)c1 | 3.5 (≈ 10.6 µM)
COc1ccc(S(=O)(=O)N2CCN(C)CC2)c(C)c1 | > 42.7
COc1ccccc1C(=O)NCC(=O)NNC(=O)c1cccs1 | > 50
Oc1ccc2ccccc2c1CN1CCCC1 | 32 (≈ 141 µM)
CC(OC(=O)c1cccc(N(C)C)c1)C(=O)N1CCc2ccccc2C1 (stereo not given) | 37.3 (≈ 106 µM)
COc1ccc(CC(C)NCCc2ccc(OC)c(OC)c2)cc1 (stereo not given) | 48.7 (≈ 148 µM)
COc1ccc(C(O)C(C)NC(C)C(O)c2ccc(OC)cc2)cc1 (stereo not given) | 43.3 (≈ 125 µM)
Cc1cc(Br)ccc1OCCN1CCCC1.O=C(O)C(=O)O | > 56.1
N/C(=N\OC(=O)Cc1ccc([N+](=O)[O-])cc1)c1ccccn1 | 26.6 (≈ 88.6 µM)
CS(=O)(=O)N1CCN(C(=O)c2ccc3c(c2)OCCO3)CC1 | > 49
CC(NC(=O)C12CC3CC(C)(CC(C)(C3)C1)C2)c1ccncc1 (stereo not given) | 41.9 (≈ 134 µM)
CC(=O)NC1=NN(C(C)=O)C(c2ccco2)S1 (stereo not given) | > 38
CNS(=O)(=O)c1cc2c3c(cccc3c1)C(=O)NC2=O | 6.3 (≈ 21.7 µM)

SMILES | solubility kinetic [µg/mL]
COc1ccc(Cl)cc1NC(=O)NCCN1CCCCC1 | > 46.8
CN(c1ccccc1)S(=O)(=O)c1ccc(C(=O)NCc2ccc(F)cc2)cc1 | 8.1 (≈ 20.3 µM)
O=C(Nc1cccc(Cl)c1N1CCOCC1)c1cccs1 | 1.6 (≈ 4.96 µM)
Cc1ccc(Cl)cc1N1CCN(CC(O)COC(C)C)CC1.Cl (stereo not given) | > 54.5
O=C(c1ccc(F)cc1)N1CCCC(c2ccccc2)C1 (stereo not given) | 36.3 (≈ 128 µM)
O=C(COC(=O)/C=C/c1ccc(C(F)(F)F)cc1)NC1CCCC1 | < 0.7
CCN(CC(=O)Nc1cc(Cl)ccc1C)C(=O)C1CC1 | > 44.2
Cc1ccccc1NC(=O)c1cc(-c2ccccc2)n(CCCN2CCOCC2)c1C | 16.3 (≈ 39 µM)
COC(=O)c1ccncc1C(=O)Nc1ccc(OC)cc1 | 39.4 (≈ 138 µM)
COC(=O)c1ccc(CNC(=O)c2ccc3c(c2)OCCO3)cc1 | 45.5 (≈ 139 µM)
Cc1cc(C)n(/C(=C\N(C)C)C(=O)c2cccc([N+](=O)[O-])c2)n1 | > 47.2
CCOc1ccc(-n2c(C)c(C(=O)O)c3cc(OC)ccc32)cc1 | 6.3 (≈ 19.4 µM)
Brc1ccc(C2NCCS2)cc1 (stereo not given) | 29.3 (≈ 120 µM)
CNC(=O)CSc1nc2cccnc2n1-c1ccc(F)cc1 | 44.7 (≈ 141 µM)
CN1CCCN(C(=O)c2ccc(Cl)cc2)CC1 | 32.9 (≈ 130 µM)
Cc1cccn2cc(-c3ccc4c(c3)NC(=O)CO4)nc12 | 7.9 (≈ 28.3 µM)
CCOC(=O)C1(CCc2ccccc2)CCN(CC(O)CO)CC1 (stereo not given) | 39.8 (≈ 119 µM)
CN(c1nc2ccccc2[nH]c1=O)C1CCCCC1 | 2.9 (≈ 11.3 µM)
O=C(O)C1C2CCC(C2)C1C(=O)Nc1ccccc1 (stereo not given) | 38.8 (≈ 150 µM)
CC(C)(C)S(=O)(=O)c1ccccc1-c1noc(-c2ccccc2)c1C(N)=O | > 57.7
O=C(Nc1ccccc1)c1ccc(NC(=O)C2CC2)cc1 | 1.2 (≈ 4.28 µM)
CCCN1C(=O)C(O)(c2c(C)[nH]c3ccccc23)c2ccccc21 (stereo not given) | 26.3 (≈ 82.1 µM)

SMILES | solubility kinetic [µg/mL]
S=C(NCCc1ccccn1)Nc1cc(Cl)cc(Cl)c1 | 19 (≈ 58.2 µM)
NS(=O)(=O)c1cccc(NC(=O)c2cccs2)c1 | > 42.3
CCOC(=O)c1cnc(-c2ccc(C(F)(F)F)cn2)[nH]c1=O | 46.8 (≈ 149 µM)
Fc1ccc(N=c2ssnc2Cl)c(F)c1 | 7.5 (≈ 28.3 µM)
Cn1c(SCC(=O)Nc2ccccc2)nc2ccccc2c1=O | 3.2 (≈ 9.83 µM)
C=CCOc1ccc(C(=O)Nc2ccc3c(c2)n(C)c(=O)n3C)cc1 | 11.4 (≈ 33.8 µM)
O=C(OCc1ccc(Br)cc1)c1cccnc1 | 40.5 (≈ 139 µM)
Cc1ccc(NC(=S)N(CCN(C)C)Cc2cccs2)cc1 | 12.2 (≈ 36.6 µM)
COc1cccc(N2CCN(C(=O)c3ccc4nc[nH]c4c3)CC2)c1 | 48.6 (≈ 144 µM)
Cc1cc(C(=O)NC(=S)Nc2cccc(C(=O)O)c2C)ccc1[N+](=O)[O-] | > 56
CCNC(=O)N1CCC(c2nc3ccccc3s2)CC1 | > 43.4
COc1ccccc1C1CCN(C(=O)c2ccco2)CC1 | 34 (≈ 119 µM)
COCCN(CC(=O)Nc1cccc(C)c1C)C(=O)C1(c2ccc(Cl)cc2)CCC1 | 33.8 (≈ 78.8 µM)
O=C(CSc1ncccn1)Nc1cc(Cl)ccc1[N+](=O)[O-] | 4.7 (≈ 14.5 µM)
Cc1cccc(NC(=O)CCc2ccccc2)c1C | 11.8 (≈ 46.6 µM)
Cc1cc2nc(/N=C(\N)NC(=O)C(C)C)nc(C)c2cc1C | 2.9 (≈ 9.69 µM)
Fc1cccc(F)c1-c1nc(-c2ccc(Cl)cc2)no1 | < 0.3
COc1cccc(Oc2nc(-c3ccccc3O)nc3ccccc23)c1 | < 0.4
CC#CC[N+](C)(C)CC(=O)c1ccccc1.[Br-] | > 44.4
